# Results as given in ChEMBL document CHEMBL1681635, “II. SAR studies of pyridyl-piperazinyl-piperidine derivatives as CXCR3 chemokine antagonists” (Bioorg Med Chem Lett, 2011).
# Key:
# [1] = molecular target: T1, C-X-C chemokine receptor type 3 (Homo sapiens, UniProt P49682); test: Antagonist activity at human CXCR3; type: functional
# T1 sequence (P49682 whole entry): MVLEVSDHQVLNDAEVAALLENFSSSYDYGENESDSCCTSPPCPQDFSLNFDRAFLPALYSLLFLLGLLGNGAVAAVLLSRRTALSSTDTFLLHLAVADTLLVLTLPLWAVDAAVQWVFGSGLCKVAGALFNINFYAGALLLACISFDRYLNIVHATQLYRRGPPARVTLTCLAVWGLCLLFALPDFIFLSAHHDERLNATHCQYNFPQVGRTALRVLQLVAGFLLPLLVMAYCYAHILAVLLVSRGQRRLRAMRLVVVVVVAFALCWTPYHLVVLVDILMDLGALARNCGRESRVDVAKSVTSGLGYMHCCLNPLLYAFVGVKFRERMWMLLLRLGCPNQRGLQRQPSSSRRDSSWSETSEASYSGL
# [2] = molecular target: T2, C-X-C chemokine receptor type 3 (Rattus norvegicus, UniProt Q9JII9); test: Antagonist activity at rat CXCR3; type: functional
# T2 sequence (Q9JII9 whole entry): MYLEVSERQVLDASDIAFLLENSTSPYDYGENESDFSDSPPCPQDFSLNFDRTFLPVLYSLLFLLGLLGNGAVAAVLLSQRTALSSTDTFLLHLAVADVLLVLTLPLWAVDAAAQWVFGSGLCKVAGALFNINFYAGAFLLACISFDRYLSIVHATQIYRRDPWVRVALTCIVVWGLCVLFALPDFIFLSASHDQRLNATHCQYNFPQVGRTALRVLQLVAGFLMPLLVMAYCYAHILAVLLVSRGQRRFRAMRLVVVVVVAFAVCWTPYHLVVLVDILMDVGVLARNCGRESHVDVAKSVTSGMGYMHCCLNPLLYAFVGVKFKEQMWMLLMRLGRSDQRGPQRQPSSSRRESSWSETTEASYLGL
# [3] = molecular target: T3, C-X-C chemokine receptor type 3 (Mus musculus, UniProt O88410); test: Antagonist activity at mouse CXCR3; type: functional
# T3 sequence (O88410 whole entry): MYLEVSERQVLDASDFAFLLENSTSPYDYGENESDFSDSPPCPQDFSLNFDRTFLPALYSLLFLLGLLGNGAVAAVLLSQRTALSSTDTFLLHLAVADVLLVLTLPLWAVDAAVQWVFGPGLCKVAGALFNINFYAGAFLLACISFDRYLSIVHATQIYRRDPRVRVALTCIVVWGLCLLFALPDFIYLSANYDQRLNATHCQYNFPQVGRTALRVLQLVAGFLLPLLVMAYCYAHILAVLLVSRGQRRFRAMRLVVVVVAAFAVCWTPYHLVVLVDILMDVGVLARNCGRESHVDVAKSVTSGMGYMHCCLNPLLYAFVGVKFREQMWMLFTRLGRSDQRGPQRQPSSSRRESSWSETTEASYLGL
# [4] = AUC in Sprague-Dawley rat at 5 mg/kg, po after 24 hrs; type: ADME, organism-based; set-up: time < 24 hr, dose 5 mg/kg, route oral; conditions: plasma
# [5] = Clearance in Sprague-Dawley rat at 5 mg/kg, po; type: ADME, organism-based; set-up: dose 5 mg/kg, route oral; conditions: in vivo
# [6] = molecular target: Cytochrome P450 2D6 (Homo sapiens, UniProt P10635); test: Inhibition of CYP2D6; type: ADME
# [7] = system: Rattus norvegicus; test: Volume of distribution at steady state in Sprague-Dawley rat at 5 mg/kg, po; type: ADME, organism-based; set-up: dose 5 mg/kg, route oral; conditions: in vivo
# [8] = molecular target: Cytochrome P450 2C19 (Homo sapiens, UniProt P33261); test: Inhibition of CYP2C19; type: ADME
# [9] = molecular target: Cytochrome P450 3A4 (Homo sapiens, UniProt P08684); test: Inhibition of CYP3A4; type: ADME
# [10] = Half life in Sprague-Dawley rat at 5 mg/kg, po; type: ADME, organism-based; set-up: dose 5 mg/kg, route oral; conditions: in vivo
# [11] = AUC in Sprague-Dawley rat at 10 mg/kg, po after 6 hrs; type: ADME, organism-based; set-up: time < 6 hr, dose 10 mg/kg, route oral; conditions: plasma
# Chain of Cytochrome P450 3A4 (P08684 whole entry): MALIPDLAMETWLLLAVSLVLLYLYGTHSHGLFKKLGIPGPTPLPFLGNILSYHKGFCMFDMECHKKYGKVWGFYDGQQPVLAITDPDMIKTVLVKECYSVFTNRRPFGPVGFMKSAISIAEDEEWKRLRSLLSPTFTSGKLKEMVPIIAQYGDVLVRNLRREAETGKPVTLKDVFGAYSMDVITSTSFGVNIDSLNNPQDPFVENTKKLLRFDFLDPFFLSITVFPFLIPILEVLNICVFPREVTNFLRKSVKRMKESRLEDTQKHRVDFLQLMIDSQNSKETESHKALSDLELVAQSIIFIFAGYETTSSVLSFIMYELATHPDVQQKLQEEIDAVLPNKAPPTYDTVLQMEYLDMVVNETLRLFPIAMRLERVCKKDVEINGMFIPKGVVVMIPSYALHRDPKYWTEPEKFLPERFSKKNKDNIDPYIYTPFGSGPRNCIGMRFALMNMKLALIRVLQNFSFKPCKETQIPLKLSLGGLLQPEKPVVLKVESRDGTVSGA
# Chain of Cytochrome P450 2C19 (P33261 whole entry): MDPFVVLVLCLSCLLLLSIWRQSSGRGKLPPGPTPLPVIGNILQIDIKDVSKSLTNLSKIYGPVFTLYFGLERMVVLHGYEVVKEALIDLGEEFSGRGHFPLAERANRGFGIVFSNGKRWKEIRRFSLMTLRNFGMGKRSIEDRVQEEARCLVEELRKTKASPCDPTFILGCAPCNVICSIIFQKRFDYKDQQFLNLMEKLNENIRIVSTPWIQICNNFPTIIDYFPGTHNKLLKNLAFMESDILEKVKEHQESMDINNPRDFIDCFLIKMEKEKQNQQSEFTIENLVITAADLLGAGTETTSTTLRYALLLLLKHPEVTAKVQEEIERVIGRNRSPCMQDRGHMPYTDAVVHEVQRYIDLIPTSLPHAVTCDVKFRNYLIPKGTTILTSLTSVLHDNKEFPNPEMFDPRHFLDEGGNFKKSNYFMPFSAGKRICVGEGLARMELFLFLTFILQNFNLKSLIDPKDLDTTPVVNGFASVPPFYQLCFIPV
# Chain of Cytochrome P450 2D6 (P10635 whole entry): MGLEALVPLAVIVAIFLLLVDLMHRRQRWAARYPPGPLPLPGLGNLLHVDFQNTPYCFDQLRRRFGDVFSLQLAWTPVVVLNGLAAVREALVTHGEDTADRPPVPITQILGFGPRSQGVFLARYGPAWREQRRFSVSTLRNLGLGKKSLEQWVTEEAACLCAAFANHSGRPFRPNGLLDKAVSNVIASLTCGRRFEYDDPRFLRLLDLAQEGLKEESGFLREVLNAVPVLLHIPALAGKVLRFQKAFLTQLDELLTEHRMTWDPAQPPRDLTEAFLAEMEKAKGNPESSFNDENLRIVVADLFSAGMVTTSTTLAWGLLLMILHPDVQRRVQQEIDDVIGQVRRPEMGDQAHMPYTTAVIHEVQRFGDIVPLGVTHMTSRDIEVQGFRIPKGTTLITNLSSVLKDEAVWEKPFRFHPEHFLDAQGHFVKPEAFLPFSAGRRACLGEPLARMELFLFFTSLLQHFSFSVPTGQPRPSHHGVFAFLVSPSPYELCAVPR
Compound,IC50 [1] [nM],also measured
CNC(=O)c1cnc(N2CCN(C3CCN(Cc4ccc(Cl)cc4Cl)CC3)[C@@H](C)C2)c(Cl)c1,17,–
CNC(=O)c1cnc(N2CCN(C3CCN(Cc4ccc(C(F)(F)F)cc4)CC3)[C@@H](C)C2)c(Cl)c1,63,–
CNC(=O)c1cnc(N2CCN(C3CCN(Cc4ccc(Cl)cc4F)CC3)[C@@H](C)C2)c(Cl)c1,18,–
CNC(=O)c1cnc(N2CCN(C3CCN(Cc4ccc(C)cc4)CC3)[C@@H](C)C2)c(Cl)c1,87,–
CNC(=O)c1cnc(N2CCN(C3CCN(Cc4ccc(S(C)(=O)=O)cc4)CC3)[C@@H](C)C2)c(Cl)c1,> 10000,–
CNC(=O)c1cnc(N2CCN(C3CCN(Cc4ccccn4)CC3)[C@@H](C)C2)c(Cl)c1,7990,–
CNC(=O)c1cnc(N2CCN(C3CCN(Cc4ccc[nH]4)CC3)[C@@H](C)C2)c(Cl)c1,8060,–
CNC(=O)c1cnc(N2CCN(C3CCN(Cc4cccs4)CC3)[C@@H](C)C2)c(Cl)c1,1980,–
CNC(=O)c1cnc(N2CCN(C3CCN(Cc4ccc(Cl)cc4)CC3)[C@@H](C)C2)c(Cl)c1,32,–
CNC(=O)c1cnc(N2CCN(C3CCN(Cc4ccco4)CC3)[C@@H](C)C2)c(Cl)c1,8100,–
CNC(=O)c1cnc(N2CCN(C3CCN(Cc4ccc(F)cc4Cl)CC3)[C@@H](C)C2)c(Cl)c1,58,–
CNC(=O)c1cnc(N2CCN(C3CCN(C(=O)c4ccc(Cl)cc4)CC3)[C@@H](C)C2)c(Cl)c1,210,–
CNC(=O)c1cnc(N2CCN(C3CCN(CC(=O)c4ccc(F)cc4)CC3)[C@@H](C)C2)c(Cl)c1,> 10000,–
CNC(=O)c1cnc(N2CCN(C3CCN(C(=O)c4ccnc5cc(Cl)ccc45)CC3)[C@@H](C)C2)c(Cl)c1,> 10000,–
O=C(NCc1ccc(F)c(F)c1)c1cnc(N2CCN(C3CCN(Cc4ccc(Cl)cc4)CC3)CC2)c(Cl)c1,–,IC50 [2]: 97 nM; IC50 [3]: 84 nM
C[C@H]1CN(c2ncc(C(=O)NCc3ccc(F)c(F)c3)cc2Cl)CCN1C1CCN(Cc2ccc(Cl)cc2)CC1,6,AUC at 24 h [4]: 1.1 µM·h; CL/F [5]: 32.6 mL/min/kg; IC50 [2]: 9.9 nM; IC50 [6]: > 10000 nM; Vdss [7]: 17.6 L/kg; IC50 [8]: > 10000 nM; IC50 [9]: > 10000 nM; half-life [10]: 6.8 h; AUC at 6 h [11]: 0.5 µM·h; IC50 [3]: 6.7 nM
C[C@H]1CN(c2ncc(C(=O)NCc3ccc(Cl)c(Cl)c3)cc2Cl)CCN1C1CCN(Cc2ccc(Cl)cc2)CC1,16,–
C[C@H]1CN(C2CCN(Cc3ccc(Cl)cc3)CC2)CCN1c1ncc(C(=O)NCc2ccc(Cl)c(Cl)c2)cc1Cl,39,–
C[C@@H]1CN(C2CCN(Cc3ccc(Cl)cc3)CC2)CCN1c1ncc(C(=O)NCc2ccc(Cl)c(Cl)c2)cc1Cl,220,–
CC1CN(C2CCN(Cc3ccc(Cl)cc3)CC2)CCN1c1ccc(C(=O)NCc2ccc(F)c(F)c2)cn1 (stereo not given),2700,–

Compound,IC50 [1] [nM],also measured
CNC(=O)c1cnc(N2CCN(C3CCN(Cc4ccc(Cl)cc4)CC3C)CC2)c(Cl)c1 (stereo not given),64,–
CNC(=O)c1cnc(N2CCN(C3CCN(Cc4ccc(Cl)cc4)C(C)C3)CC2)c(Cl)c1 (stereo not given),31,–
CC1(N2CCN(c3ncc(C(=O)NCc4ccc(Cl)c(Cl)c4)cc3Cl)CC2)CCN(Cc2ccc(Cl)cc2)CC1,27,–
O=C(NCc1ccc(F)c(F)c1)c1cnc(N2CCN(C3CCN(Cc4ccc(Cl)cc4)CC3)C(=O)C2)c(Cl)c1,1400,–
CNC(=O)c1cnc(N2CCN(C3CCN(Cc4ccc(Cl)cc4)C(=O)C3)[C@@H](C)C2)c(Cl)c1 (stereo not given in full),7000,–
CNC(=O)c1cnc(N2CCC(N3CCN(Cc4ccc(Cl)cc4)C[C@@H]3C)CC2)c(Cl)c1,12500,–
CNC(=O)c1cnc(N2CCC(N3CCN(Cc4ccc(Cl)cc4)C[C@H]3C)CC2)c(Cl)c1,7350,–
CNC(=O)c1cnc(N2CCC(N3CCN(Cc4ccc(Cl)cc4)CC3)C(C)C2)c(Cl)c1 (stereo not given),280,–
COC(=O)c1cnc(N2CCN(C3CCN(Cc4ccc(Cl)cc4)CC3)[C@@H](C)C2)c(Cl)c1,520,–
C[C@H]1CN(c2ncc(C(=N)N)cc2Cl)CCN1C1CCN(Cc2ccc(Cl)cc2)CC1,80,–
CCNC(=N)c1cnc(N2CCN(C3CCN(Cc4ccc(Cl)cc4)CC3)[C@@H](C)C2)c(Cl)c1,83,–
CC(=O)Nc1cnc(N2CCN(C3CCN(Cc4ccc(Cl)cc4)CC3)[C@@H](C)C2)c(Cl)c1,8,–
C[C@H]1CN(c2ncc(NC(=O)C3CC3)cc2Cl)CCN1C1CCN(Cc2ccc(Cl)cc2)CC1,20,–
C[C@H]1CN(c2ncc(C(N)=O)cc2Cl)CCN1C1CCN(Cc2ccc(Cl)cc2)CC1,39,–
CCNC(=O)c1cnc(N2CCN(C3CCN(Cc4ccc(Cl)cc4)CC3)[C@@H](C)C2)c(Cl)c1,2.3,–
CC(C)NC(=O)c1cnc(N2CCN(C3CCN(Cc4ccc(Cl)cc4)CC3)[C@@H](C)C2)c(Cl)c1,5,–
C[C@H]1CN(c2ncc(C(=O)NCC3CCCCC3)cc2Cl)CCN1C1CCN(Cc2ccc(Cl)cc2)CC1,2.4,–
C[C@H]1CN(c2ncc(C(=O)Nc3ccc(F)c(F)c3)cc2Cl)CCN1C1CCN(Cc2ccc(Cl)cc2)CC1,22,–
C[C@H]1CN(c2ncc(C(=O)N3CCCCC3)cc2Cl)CCN1C1CCN(Cc2ccc(Cl)cc2)CC1,900,–
C[C@H]1CN(c2ncc(C(=O)N3CCC3)cc2Cl)CCN1C1CCN(Cc2ccc(Cl)cc2)CC1,630,–

Compound,IC50 [1] [nM],also measured
CC[C@H]1CN(c2ncc(C(=O)NC)cc2Cl)CCN1C1CCN(Cc2ccc(Cl)cc2)CC1,3,–
CNC(=O)c1cnc(N2CCN(C3CCN(Cc4ccc(Cl)cc4)CC3)[C@@H](CC(C)C)C2)c(Cl)c1,260,–
CNC(=O)c1cnc(N2CCN(C3CCN(Cc4ccc(Cl)cc4)CC3)[C@@H](c3ccccc3)C2)c(Cl)c1,830,–
CNC(=O)c1cnc(N2CCN(C3CCN(Cc4ccc(Cl)cc4)CC3)C(C(=O)OC)C2)c(Cl)c1 (stereo not given),140,–
CNC(=O)c1cnc(N2CCN(C3CCN(Cc4ccc(Cl)cc4)CC3)C(CO)C2)c(Cl)c1 (stereo not given),910,–
CNC(=O)c1cnc(N2CCN(C3CCN(Cc4ccc(Cl)cc4)CC3)C(COC)C2)c(Cl)c1 (stereo not given),3100,–
CNC(=O)c1cnc(N2CCN(C3CCN(Cc4ccc(Cl)cc4)CC3)C(C(=O)O)C2)c(Cl)c1 (stereo not given),> 50000,–
CNC(=O)c1cnc(N2CCN(C3CCN(Cc4ccc(Cl)cc4)CC3)C(C(=O)NC)C2)c(Cl)c1 (stereo not given),8900,–
CCNC(=O)c1cnc(N2CCN(C3CCN(Cc4ccc(Cl)cc4F)CC3)[C@@H](CC)C2)c(Cl)c1,–,IC50 [2]: 1.6 nM; AUC at 6 h [11]: 0.95 µM·h; IC50 [3]: 1.1 nM
CCNC(=O)c1cnc(N2CCN(C3CCN(Cc4ccc(Cl)cc4)CC3)[C@@H](C(C)C)C2)c(Cl)c1,23,–
CCNC(=O)c1cnc(N2CCN(C3CCN(Cc4ccc(Cl)cc4F)CC3)C(C3CC3)C2)c(Cl)c1 (stereo not given),32,–
CCNC(=O)c1cnc(N2CCN(C3CCN(Cc4ccc(Cl)cc4)CC3)[C@@H](CC)C2)c(Cl)c1,0.3,IC50 [2]: 1.2 nM; AUC at 6 h [11]: 0.41 µM·h; IC50 [3]: 0.5 nM
CNC(=O)c1cnc(N2CCN(C3CCN(Cc4ccc(Cl)cc4)CC3)CC2)c(Cl)c1,560,–
O=C(NCc1ccc(Cl)c(Cl)c1)c1cnc(N2CCC(N3CCN(Cc4ccc(Cl)cc4)CC3)CC2)c(Cl)c1,4500,–
O=C(NCc1ccc(Cl)c(Cl)c1)c1cnc(N2CCN(C3CCN(Cc4ccc(Cl)cc4)CC3)CC2)c(Cl)c1,35,–
"CNC(=O)c1cnc(N2CCN(C3CCN(C(C)c4ccc(Cl)cc4)CC3)[C@@H](C)C2)c(Cl)c1 (single isomer, unassigned; isomer 1)",5,–
"CNC(=O)c1cnc(N2CCN(C3CCN(C4CCc5cc(Cl)ccc54)CC3)[C@@H](C)C2)c(Cl)c1 (single isomer, unassigned; isomer 1)",29,–
"CNC(=O)c1cnc(N2CCN(C3CCN(C4CCc5cc(Cl)ccc54)CC3)[C@@H](C)C2)c(Cl)c1 (single isomer, unassigned; isomer 2)",35,–
CNC(=O)c1cnc(N2CCN(C3CCN(C(C)c4ccc(Cl)cc4)CC3)[C@@H](C)C2)c(Cl)c1 (stereo in doubt; 6l),110,–
